Reference: US20100137260A1, “COMPOUND FOR INHIBITING TRPV3 FUNCTION AND USE THEREOF” (Korea University Industry and Academic Collaboration …, priority 2008, published 2010)

Tested on: HaCat skin cells
Test: Artificial wound recovery (cell migration and proliferation) in HaCat cells (FIG. 3)
Type: cell-based
Details: 12 hours; for Migration and proliferation of HaCaT cells in medium containing camphor: medium containing 4 mM camphor, IPP 10 μM, FPP 1 μM, GPP 10 μM
Procedure: The present inventors drew lines 1 mm deep on the well fully filled with the cells to make artificial wound. The wounded cells were treated with IPP (10 μM), FPP (1 μM) and GPP (10 μM: geranyl pyrophosphate, Biomol, USA) respectively and incubated in a CO2 incubator for 12 hours. The control group was not-treated. The width of recovered wound was measured under microscope and compared with that at the beginning, which was presented as wound recovery rate. All the experiments were performed on DMEM/FBS. Floating cells, which means dead cells, after making wound, were eliminated by using PBS to eliminate variables caused by dead cells. The cells were observed under microscope (×40), and distance was measured by using image analysis program (Meta-flour 7.1 Molecular Devices, USA).

Compound	Migration and proliferation of HaCat skin cells, compound alone (FPP alone (1 μM))	Migration and proliferation of HaCaT cells in medium containing camphor
CC(C)=CCC/C(C)=C/CC/C(C)=C/COP(=O)(O)OP(=O)(O)O [FPP]	confirmed the inhibitory effect	inhibitory effect was not observed
CC(C)=CCC/C(C)=C/COP(=O)(O)OP(=O)(O)O [GPP, geranyl pyrophosphate]	–	inhibitory effect was not observed
